The target of assay [1] is T1, wild-type rabbit PepT1 (Oryctolagus cuniculus, UniProt P36836).
T1 construct: expressed in transfected cells; host or cells: Xenopus laevis oocytes injected with cRNA
T1 sequence (P36836 1-707): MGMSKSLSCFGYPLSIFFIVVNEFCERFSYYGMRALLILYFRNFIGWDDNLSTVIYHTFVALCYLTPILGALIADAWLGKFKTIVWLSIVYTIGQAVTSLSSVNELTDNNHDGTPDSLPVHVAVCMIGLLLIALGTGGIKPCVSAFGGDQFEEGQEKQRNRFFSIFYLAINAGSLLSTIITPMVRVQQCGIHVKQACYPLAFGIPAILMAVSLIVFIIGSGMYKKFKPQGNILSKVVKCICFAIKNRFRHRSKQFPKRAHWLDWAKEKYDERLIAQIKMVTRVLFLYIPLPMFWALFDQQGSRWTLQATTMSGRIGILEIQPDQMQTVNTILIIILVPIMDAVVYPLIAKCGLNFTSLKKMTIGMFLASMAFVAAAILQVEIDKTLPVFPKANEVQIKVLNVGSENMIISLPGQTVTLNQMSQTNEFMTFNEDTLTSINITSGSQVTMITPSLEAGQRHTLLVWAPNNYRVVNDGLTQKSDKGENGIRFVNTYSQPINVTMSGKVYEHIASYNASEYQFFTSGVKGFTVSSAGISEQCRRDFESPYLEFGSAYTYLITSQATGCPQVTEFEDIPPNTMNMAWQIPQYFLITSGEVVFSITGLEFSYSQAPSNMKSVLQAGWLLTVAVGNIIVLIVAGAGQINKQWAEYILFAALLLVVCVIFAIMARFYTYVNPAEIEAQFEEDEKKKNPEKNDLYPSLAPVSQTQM
The assay can be described thus: Inhibition of [3H]-D-Phe-L-Gln uptake into Xenopus oocytes expressing wild-type PepT1 (competition, Ki). The format is cell-based. The settings on record: wild-type PepT1, pHout 5.5, 0.4 μM [3H]-D-Phe-L-Gln, Xenopus oocytes; read-out: Ki (inhibition of [3H]-D-Phe-L-Gln uptake). The protocol: (§1) Zero-trans uptake of [^3H]-D-Phe-L-Gln (17.4 Ci/mmole, custom synthesised, Cambridge Research Biochemicals, Stockton-on-Tees, UK) was performed as previously described ([Meredith, 2004]). Briefly, 5 oocytes were incubated in 100 μl of uptake medium (95 mM NaCl, 2 mM KCl, 1 mM CaCl2, 0.42 mM MgCl2, 10 mM Tris/Hepes pH 7.4 or Tris/Mes pH 5.5) with tracer (0.4 μM) [^3H]-D-Phe-L-Gln. After incubation, the oocytes were washed sequentially five times in 1 ml of ice-cold 120 mM NaCl solution, lysed individually with 100 μl 2% (w/v) SDS and liquid scintillation counted. As a control non-injected oocytes were also incubated in uptake medium with [^3H]-D-Phe-L-Gln as above.
(§2) The affinity of wild-type and mutant PepT1 were assessed by competition studies with 0.4 μM [^3H]-D-Phe-L-Gln and Gly-L-Gln present in the uptake medium in concentrations from 0 to 2 mM using the protocol above, and the Ki calculated using the method of [Deves and Boyd (1989)].

In assay [2] the target is T2, R282K-PepT1 (Oryctolagus cuniculus, UniProt P36836, R282K).
T2 construct: expressed in transfected cells; host or cells: Xenopus laevis oocytes injected with cRNA
T2 sequence (P36836 1-707 R282K): T1 sequence (P36836 1-707) with R282K
The assay can be described thus: Inhibition of [3H]-D-Phe-L-Gln uptake into Xenopus oocytes expressing R282K-PepT1 (competition, Ki). The format is cell-based, rabbit. The settings on record: pHout 5.5, 0.4 μM [3H]-D-Phe-L-Gln. Here is the method: as §1, §2

The target of assay [3] is T3, R282A-PepT1 (Oryctolagus cuniculus, UniProt P36836, R282A).
T3 construct: expressed in transfected cells; host or cells: Xenopus laevis oocytes injected with cRNA
T3 sequence (P36836 1-707 R282A): T1 sequence (P36836 1-707) with R282A
The assay can be described thus: Inhibition of [3H]-D-Phe-L-Gln uptake into Xenopus oocytes expressing R282A-PepT1 (competition, Ki). The format is cell-based, rabbit. As to conditions: pHout 5.5, 0.4 μM [3H]-D-Phe-L-Gln. The protocol: as §1, §2

Assay [4] has as its target T4, wild-type PepT1 (Oryctolagus cuniculus, UniProt P36836).
T4 construct: expressed in transfected cells; host or cells: Xenopus laevis oocytes injected with cRNA
T4 sequence (P36836 1-707): T1 sequence (P36836 1-707)
The assay can be described thus: Accumulation of [3H]-D-Phe-L-Gln above the extracellular concentration by oocytes expressing wild-type PepT1. The format is cell-based, rabbit. The protocol: as §1

Substitutions are numbered along the chain they refer to. Where a SMILES comes first, the peptide text is derived from it.

As to `NCC(=O)N[C@@H](CCC(N)=O)C(=O)O` [Gly-L-Gln] (H-Gly-Gln-OH), the figures for the Ki in assay [1], in assay [2] and in assay [3] were 390 ± 220 µM, 480 ± 260 µM and 300 ± 170 µM, respectively.
In the case of `NC(=O)CC[C@H](NC(=O)[C@H](N)Cc1ccccc1)C(=O)O` [D-Phe-L-Gln], the “accumulation above extracellular concentration” value in assay [4] (third comparison, printed as wild-type PepT1 at pHout 7.4, 8 h incubation) is 1.0 ± 0.4; in assay [4] (third comparison, printed as wild-type PepT1 at pHout 7.4, 24 h incubation), 1.5 ± 0.3; in assay [4] (wild-type PepT1, pHout 5.5, 8 h incubation) it was 8.0 ± 1.4; in assay [4] (wild-type PepT1, pHout 5.5, 24 h incubation) it was 8.3 ± 1.0; in assay [4] (wild-type PepT1, pHout 7.4, 8 h incubation), 2.5 ± 0.5; in assay [4] (wild-type PepT1, pHout 7.4, 24 h incubation), 3.1 ± 0.5 -fold.

Broadly, the Ki is the equilibrium dissociation constant of an inhibitor or competing ligand from its target.
